From the NIST ThermoML archive (doi:10.1016/j.jct.2018.02.017)

Experiments:
[1] = for Triple point temperature: DSC; for mass density: 100 kPa, Liquid, Vibrating tube method
[2] = Molar enthalpy of transition or fusion; settings: DSC
[3] = mn = molality of the nth substance listed, in mol/kg; settings: 298.15 K, 100 kPa, Liquid, Falling or rolling sphere viscometry
[4] = excess molar enthalpy (molar enthalpy of mixing); xn = mol fraction of the nth substance listed; settings: 100 kPa, Liquid, Flow calorimetry
[5] = xn = mol fraction of the nth substance listed; settings: 100 kPa, Liquid, Vibrating tube method

CCCC[N+]1(C)CCCC1.O=S(=O)([O-])C(F)(F)C(F)F
Settings | Molar enthalpy of transition or fusion, [2] [kcal/mol] | Triple point temperature, [1] [K]
Crystal 1 | 2.61 | 318.5
Crystal 2 | 3.01 | 279.3

CCCC[N+]1(C)CCCC1.O=S(=O)([O-])C(F)(F)C(F)F + O
[3]
Settings | viscosity [mPa·s]
m1 = 0.01177 | 0.8996
m1 = 0.02018 | 0.9033
m1 = 0.02912 | 0.9095
m1 = 0.05104 | 0.9233
m1 = 0.07113 | 0.934
m1 = 0.09124 | 0.9463

CCCCn1cc[n+](C)c1.N#CN=C=[N-] [1-butyl-3-methylimidazolium dicyanamide]
[1]
Settings | mass density [kg/m3]
288.15 K | 1065.64
293.15 K | 1062.04
298.15 K | 1059.22
303.15 K | 1056.04
308.15 K | 1052.88
313.15 K | 1049.74
318.15 K | 1046.63
323.15 K | 1043.5
328.15 K | 1040.4
333.15 K | 1037.38

CCCC[N+]1(C)CCCC1.N#CN=C=[N-] [1-butyl-1-methylpyrrolidinium dicyanamide] + O
Settings | excess molar enthalpy, [4] [kcal/mol] | mass density, [5] [kg/m3]
288.15 K, x1 = 0.000366 | -0.00048 | 999.262
288.15 K, x1 = 0.000732 | -0.000918 | 999.415
288.15 K, x1 = 0.001097 | -0.00134 | 999.558
288.15 K, x1 = 0.001462 | -0.00175 | 999.693
288.15 K, x1 = 0.001827 | -0.00212 | 999.827
288.15 K, x1 = 0.002192 | – | 999.945
298.15 K, x1 = 0.000366 | -0.00027 | 997.161
298.15 K, x1 = 0.000732 | -0.000516 | 997.266
298.15 K, x1 = 0.001098 | -0.000743 | 997.365
298.15 K, x1 = 0.001463 | -0.000963 | 997.458
298.15 K, x1 = 0.001828 | -0.00117 | 997.547
298.15 K, x1 = 0.002193 | -0.00138 | 997.632
308.15 K, x1 = 0.000366 | -6.21e-05 | 994.108
308.15 K, x1 = 0.000731 | -0.0001 | 994.175
308.15 K, x1 = 0.001097 | -0.000127 | 994.237
308.15 K, x1 = 0.001462 | -0.00016 | 994.294
308.15 K, x1 = 0.001827 | -0.000201 | 994.349
308.15 K, x1 = 0.002192 | -0.00022 | 994.4
318.15 K, x1 = 0.000366 | 0.000141 | 990.258
318.15 K, x1 = 0.000731 | 0.000301 | 990.295
318.15 K, x1 = 0.001097 | 0.000471 | 990.326
318.15 K, x1 = 0.001462 | 0.000643 | 990.353
318.15 K, x1 = 0.001826 | 0.00082 | 990.377
318.15 K, x1 = 0.002192 | 0.000997 | 990.398

[3]
Settings | viscosity [mPa·s]
m1 = 0.01007 | 0.8956
m1 = 0.01538 | 0.8983
m1 = 0.03088 | 0.9043
m1 = 0.04839 | 0.9119
m1 = 0.0703 | 0.921
m1 = 0.09073 | 0.9308
